Data as given in patent publication US9433592B2, “Pharmaceutical or veterinary antiviral compositions” (priority 2009, dated 2016).
Entries after “also recorded” stand apart in the source; their conditions may differ.

Experiments:
[1] = system: H1N1 A/New Caledonia/20/99; assay type: cell-based, influenza A virus
H3N2 A/Moscow/10/99 = assay type: cell-based, influenza A virus
H5N1 A/Turkey/582/2006 = assay type: cell-based, influenza A virus
[2] = system: H5N2 A/Finch/England/2051/94; assay type: cell-based, influenza A virus
[3] = system: pandemic H1N1 virus (A/California/07/2009); assay type: cell-based, influenza A virus
influenza A viruses = assay: Selectivity index summary (ratio between CC50 and EC50) on the viruses; assay type: cell-based, influenza A virus; details: summary over the viruses tested (FIG. 4)
[4] = system: H7N1 A/Chicken/Italy/2076/99; assay type: cell-based, influenza A virus
in vitro = details: human

Compound	inhibition of the infectious cycle of H1N1 virus [1]	inhibition of the infectious cycle of H3N2 virus (H3N2 A/Moscow/10/99)	inhibition of the infectious cycle of H5N1 virus (H5N1 A/Turkey/582/2006)	inhibition of the infectious cycle of H5N2 virus [2]	antiviral activity on pandemic H1N1 virus [3]	inhibitor class by selectivity index (SI = CC50/EC50) (influenza A viruses)	inhibition of the infectious cycle of low-MOI H1N1 virus [1]	inhibition of the infectious cycle of low-MOI H7N1 virus [4]	CC50 (in vitro) [µM]	inhibition of the infectious cycle of low-MOI pandemic H1N1 virus [3]
COc1ccc(OC)c(C(O)CNC(=O)CN)c1.Cl (racemic) [midodrine, Acetamide, 2-amino-N-[2-(2,5-dimethoxyphenyl)-2-hydroxyethyl]-monohydrochloride, (±)-]	inhibits the infectious cycle of all the viruses tested	inhibits the infectious cycle of all the viruses tested	inhibits the infectious cycle of all the viruses tested	inhibits the infectious cycle of all the viruses tested	characterized by antiviral activity; also recorded: inhibits the infectious cycle of all the viruses tested	moderate (a moderate inhibitor has an SI between 10 and 50)	–	–	–	–
CCN[C@H]1CN(CCCOC)S(=O)(=O)c2sc(S(N)(=O)=O)cc21 [brinzolamide, (R)-(+)-4-Ethylamino-2-(3-methoxypropyl)-3,4-dihydro-2H-thieno[3,2-e]-1,2-thiazine-6-sulfonamide-1,1-dioxide]	–	inhibits primarily the infectious cycle	–	–	do not seem to have an impact	–	inhibits primarily the infectious cycle	inhibits primarily the infectious cycle	≥ 666	–
Cc1nccc2c1[nH]c1cc(O)ccc12 [harmol, 1-Methyl-9H-beta-carbolin-7-ol]	–	inhibits the infectious cycle	inhibits the infectious cycle	inhibits the infectious cycle	characterized by antiviral activity	–	–	–	95	inhibits the infectious cycle
C1COC(NC(C2CC2)C2CC2)=N1 [rilmenidine]	inhibits the infectious cycle	inhibits the infectious cycle	–	inhibits the infectious cycle	do not seem to have an impact	–	–	–	1120	–
